The values that follow come from patent US9127004B2, “Nitrogen containing heterocyclic compounds” (Wockhardt Ltd., priority 2011, dated 2015).

Common to all, as to assay: MIC of Ceftazidime in presence of test compound, agar dilution (CLSI)
What all share (assay type): cell-based
(In general: In agar dilution the substance is mixed into plates at graded concentrations.)

One experiment concerns E. coli 7MP. The following applies: compound present at 4 mcg/ml. How it is done: (§1) The biological activity of representative compounds according to the invention against various bacterial strains was investigated. In a typical study, overnight grown bacterial cultures were diluted appropriately and inoculated on the agar media containing doubling dilutions of the test compounds. Observation for growth or no growth was performed after 16-20 hours of incubation at 35±2° C. in ambient air. The overall procedure was performed as per Clinical and Laboratory Standards Institute (CLSI) recommendations (Clinical and Laboratory Standards Institute (CLSI), Performance Standards for Antimicrobial Susceptibility Testing, 20th Informational Supplement, M 100-S20, Volume 30, No. 1, 2010).
(§2) The antibacterial activity of representative compounds according to the invention was also investigated in combination with at least one antibacterial agent using the above study protocol and the results are given Table 3 and 4.

A further experiment has as its system E. coli M50. To be noted: compound present at 4 mcg/ml. How it is done: as §1, §2
The next experiment concerns E. coli NCTC 13351. The following applies: compound present at 4 mcg/ml, Table 3. As for the experimental part: as §1, §2
The next experiment deals with A. baumannii 13301. The following applies: A. baumannii 13301, Class D ESBL; compound present at 4 mcg/ml; Table 4. How it is done:
as §1, §2

A further experiment concerns A. baumannii 13304. To be noted: A. baumannii 13304, Class D ESBL; compound present at 4 mcg/ml; Table 4. As for the experimental part:
as §1, §2

The test system of the next experiment is E. coli B 89. To be noted: E. coli B 89, Class C ESBL; compound present at 4 mcg/ml; Table 4. How it is done: as §1, §2
A further experiment deals with E. coli W 13351. The following applies: E. coli W 13351, Class A ESBL; compound present at 4 mcg/ml; Table 4. How it is done: as §1, §2
A further experiment deals with E. coli W 13352. The following applies: E. coli W 13352, Class A ESBL; compound present at 4 mcg/ml; Table 4. As for the experimental part: as §1, §2
The test system of another experiment is E. coli W 13353. To be noted: E. coli W 13353, Class A ESBL; compound present at 4 mcg/ml; Table 4. How it is done:
as §1, §2

A further experiment deals with K. pneumoniae H 520. The following applies: K. pneumoniae H 520, KPC ESBL; compound present at 4 mcg/ml; Table 4. As for the experimental part: as §1, §2
The subject of a further experiment is K. pneumoniae H 521. To be noted: K. pneumoniae H 521, KPC ESBL; compound present at 4 mcg/ml; Table 4. As for the experimental part: as §1, §2
The test system of the next experiment is K. pneumoniae H 522. To be noted: K. pneumoniae H 522, KPC ESBL; compound present at 4 mcg/ml; Table 4. As for the experimental part: as §1, §2

As for `O=C1N2C[C@@H](CC[C@@H]2c2nnc(CN3CCOCC3)o2)N1OS(=O)(=O)O.[Na]` (relative stereo) [Example 11, Sodium salt of trans-6-(sulphooxy)-2-(5-(morpholino-4-methyl)-[1,3,4]-oxadiazol-2-yl)-7-oxo-1,6-diazabicyclo[3.2.1]-octane], the “Activity of Ceftazidime (MIC) in presence of compound” value (“Activity of Ceftazidime (MIC)” below) with E. coli 7MP (Table 3) stood at 32 µg/mL; with E. coli M50 (E. coli M50, Table 3) it was 2 µg/mL; in the experiment with E. coli NCTC 13351 it was 1 µg/mL.
As for `CCc1nnc([C@H]2CC[C@@H]3CN2C(=O)N3OS(=O)(=O)[O-])o1.[Na+]` (relative stereo) [Example 2, Sodium salt of trans-6-(sulphooxy)-2-(5-ethyl-[1,3,4]-oxadiazol-2-yl)-7-oxo-1,6-diazabicyclo[3.2.1]-octane], the “Activity of Ceftazidime (MIC)” value in the experiment with E. coli 7MP (Table 3) is 32 µg/mL; in the experiment on E. coli M50 (E. coli M50, Table 3), 16 µg/mL; in the experiment on E. coli NCTC 13351, 16 µg/mL.
Consider `O=C1N2C[C@@H](CC[C@@H]2c2nnc(-c3ccccc3)o2)N1OS(=O)(=O)O.[Na]` (relative stereo) [Example 7, Sodium salt of trans-6-(sulphooxy)-2-(5-phenyl-[1,3,4]-oxadiazol-2-yl)-7-oxo-1,6-diazabicyclo[3.2.1]-octane], for which the “Activity of Ceftazidime (MIC)” value was 32 µg/mL in the experiment with E. coli 7MP (Table 3); 16 µg/mL in the experiment on E. coli M50 (E. coli M50, Table 3); 16 µg/mL in the experiment with E. coli NCTC 13351.
Consider `O=C1N2C[C@@H](CC[C@@H]2c2nnc(-c3ccco3)o2)N1OS(=O)(=O)[O-].[Na+]` (relative stereo) [Example 6, Sodium salt of trans-6-(sulphooxy)-2-(5-(furan-2-yl)-[1,3,4]-oxadiazol-2-yl)-7-oxo-1,6-diazabicyclo[3.2.1]-octane], for which the “Activity of Ceftazidime (MIC)” value is 32 µg/mL with E. coli 7MP (Table 3); 16 µg/mL in the experiment with E. coli M50 (E. coli M50, Table 3); 32 µg/mL with E. coli NCTC 13351.
On to `O=C1N2C[C@@H](CC[C@@H]2c2nnc(C(F)(F)F)o2)N1OS(=O)(=O)[O-].[Na+]` (relative stereo) [Example 3, Sodium salt of trans-6-(sulphooxy)-2-(5-trifluoromethyl-[1,3,4]-oxadiazol-2-yl)-7-oxo-1,6-diazabicyclo[3.2.1]-octane], for which the “Activity of Ceftazidime (MIC)” value with E. coli 7MP (Table 3) was found to be 32 µg/mL; in the experiment on E. coli M50 (E. coli M50, Table 3), 16 µg/mL; in the experiment with E. coli NCTC 13351, 16 µg/mL.
As to `O=C1N2C[C@@H](CC[C@@H]2c2nnc(-c3ccon3)o2)N1OS(=O)(=O)[O-].[Na+]` (relative stereo) [Example 5, Sodium salt of trans-6-(sulphooxy)-2-(5-(isooxazol-3-yl)-[1,3,4]-oxadiazol-2-yl)-7-oxo-1,6-diazabicyclo[3.2.1]-octane], the “Activity of Ceftazidime (MIC)” value in the experiment with E. coli 7MP (Table 3) came out at 16 µg/mL; in the experiment on E. coli M50 (E. coli M50, Table 3), 4 µg/mL; in the experiment with E. coli NCTC 13351 it was 4 µg/mL.
Regarding `NC(=O)c1nnc([C@H]2CC[C@@H]3CN2C(=O)N3OS(=O)(=O)O)o1.[Na]` (relative stereo) [Example 4, Sodium salt of trans-6-(sulphooxy)-2-(5-carboxamido-[1,3,4]-oxadiazol-2-yl)-7-oxo-1,6-diazabicyclo[3.2.1]-octane], the “Activity of Ceftazidime (MIC)” value was greater than 32 µg/mL in the experiment on A. baumannii 13301; 8 µg/mL in the experiment with A. baumannii 13304; 2 µg/mL in the experiment on E. coli 7MP (Class C ESBL, Table 4); 2 µg/mL in the experiment with E. coli 7MP (Table 3); 1 µg/mL in the experiment with E. coli B 89; 1 µg/mL in the experiment on E. coli M50 (E. coli M 50, Class C ESBL, Table 4). The “Activity of Ceftazidime (MIC)” value came out at 1 µg/mL in the experiment on E. coli M50 (E. coli M50, Table 3); 0.5 µg/mL in the experiment on E. coli NCTC 13351; 0.5 µg/mL in the experiment with E. coli W 13351; 1 µg/mL with E. coli W 13352; 0.25 µg/mL in the experiment on E. coli W 13353; 1 µg/mL in the experiment with K. pneumoniae H 520. Besides, the “Activity of Ceftazidime (MIC)” value in the experiment with K. pneumoniae H 521 and in the experiment on K. pneumoniae H 522 was 1 µg/mL in each case.
Consider `O=C1N2C[C@@H](CC[C@@H]2c2nnc(-c3cn4c(n3)COCC4)o2)N1OS(=O)(=O)O.[Na]` (relative stereo) [Example 10, Sodium salt of trans-6-(sulphooxy)-2-(5-(5,6-dihydro-8H-imidazo[2,1-c][1,4]-oxazin-2-yl)-[1,3,4]-oxadiazol-2-yl)-7-oxo-1,6-diazabicyclo[3.2.1]-octane], for which the “Activity of Ceftazidime (MIC)” value was 32 µg/mL in the experiment with E. coli 7MP (Table 3); 16 µg/mL with E. coli M50 (E. coli M50, Table 3); 16 µg/mL with E. coli NCTC 13351.
For `O=C1N2C[C@@H](CC[C@@H]2c2nnc(-c3ccccn3)o2)N1OS(=O)(=O)[O-].[Na+]` (relative stereo) [Example 8, Sodium salt of trans-6-(sulphooxy)-2-(5-(pyridin-2-yl)-[1,3,4]-oxadiazol-2-yl)-7-oxo-1,6-diazabicyclo[3.2.1]-octane], the “Activity of Ceftazidime (MIC)” value in the experiment on E. coli 7MP (Table 3) amounted to 32 µg/mL; in the experiment on E. coli M50 (E. coli M50, Table 3) it was 16 µg/mL; in the experiment on E. coli NCTC 13351, 16 µg/mL.
On to `NC(=O)c1cccc(-c2nnc([C@H]3CC[C@@H]4CN3C(=O)N4OS(=O)(=O)O)o2)n1.[Na]` (relative stereo) [Example 9, Sodium salt of trans-6-(sulphooxy)-2-(5-(6-carboxamido-pyridin-2-yl)-[1,3,4]-oxadiazol-2-yl)-7-oxo-1,6-diazabicyclo[3.2.1]-octane], for which the “Activity of Ceftazidime (MIC)” value with E. coli 7MP (Table 3) was greater than 32 µg/mL; in the experiment on E. coli M50 (E. coli M50, Table 3) it was 8 µg/mL; with E. coli NCTC 13351, 2 µg/mL.
Turning to `O=C(c1nnc([C@H]2CC[C@@H]3CN2C(=O)N3OS(=O)(=O)[O-])o1)N1CCOCC1.[Na+]` (relative stereo) [Example 12, Sodium salt of trans-sulfuric acid mono-[2-(5-(morpholin-4-yl-carbonyl)-[1,3,4]-oxadiazol-2-yl)-7-oxo-1,6-diazabicyclo[3.2.1]-octan-6-yl]ester], the “Activity of Ceftazidime (MIC)” value was determined as 16 µg/mL with E. coli 7MP (Table 3); 8 µg/mL in the experiment with E. coli M50 (E. coli M50, Table 3); 2 µg/mL in the experiment on E. coli NCTC 13351.
